Measured values reported in patent publication US9668960B2, “Methods useful in studying or modulating skin or hair pigmentation, plant extracts for use in compositions and cosmetic care method” (L V M H RECHERCHE, priority 2008, dated 2017).

Legend:
[1] = test system: Normal human epidermal melanocytes (F52; p5); assay: Melanin assay (melanogenesis) in normal pigmented human melanocytes; assay type: cell-based; details: 72 h; for Changes in melanin levels, F52 EM % change: L-18 0.001%, L-19 1%, L-20 0.5%, L-21 10 μg/ml, L-22 1%, L-23 0.05 μg/ml, IBMX 100 μM, NH4Cl 100 μM, niacinamide 10 μM, vs basal; for Melanin content, F52 EM (pg/cell): same doses as E1, basal 35.63
Description: Cells were then washed 3-times with sterile PBS and supplemented with 350 μl of either fresh serum-free RPMI medium (melanoma cells) or starved serum-free and BPE-free melanocyte medium (EM) and incubated at 37° C. and 5% CO2 for 24 h. Cells were then washed with sterile PBS 3-times and incubated with IBMX 1×10^-4 M at 37° C. and 5% CO2 for 12, 24, and 72 h. Cells were then gently washed 3-times with sterile PBS and fixed in ice-cold methanol for 10 minutes at -20° C. Slides were stored at -20° C. until immunocytochemistry was performed. […] The melanin standards were pipetted into a 96 well plate to produce a calibration curve for the assessment of melanin content in the test samples. 400 μl of 1 M NaOH was added to each cell pellet and dissolved on a heat block (100° C.) for 15 minutes. The pellets were vortexed vigorously and the solubilized pellet was pipetted into the same 96-well plate. The optical densities of the sample were read at […] on a DYNEX REVELATION 4.02 program. Melanin content of each test sample was read from the calibration curve. […] In addition IBMX and NH4Cl (positive melanocytic modulators) and niacinamide (negative modulator) were used as controls. Visible change was not particularly evident in normal melanocyte due to their already high basal melanin levels (FIG. 1). By contrast, visible change was evident in melanoma cells basal melanin levels were low (FIG. 2). […] Normal human epidermal melanocytes (Female-52; p5) were treated for 72 h with L-18 (0.001%), L-19 (1%), L-20 (0.5%), L-21 (10 μg/ml), L-22 (1%) and L-23 (0.05 μg/ml). Controls: Melanocytic modulators: IBMX (100 μM), NH4Cl (100 μM), and niacinamide (10 μM). (A) Melanin content was determined spectro-photometrically (475 nm) after sodium hydroxide solubilise (B) Visible change was not particularly evident in these cells due to their already high basal melanin levels. Results were expressed as change in melanin content (pg/cell) compared to unstimulated control levels. Means are ±SEM of 3 independent experiments with *P<0.05, **P<0.01, ***P<0.001. NS-Not Significant

[2] = test system: FM55 melanoma cells; assay: Melanin assay (melanogenesis) in moderately-pigmented FM55 melanoma; assay type: cell-based, human; details: 72 h; for Changes in melanin levels, FM55 % change: L-18 0.001%, L-19 1%, L-20 0.5%, L-21 10 μg/ml, L-22 1%, L-23 0.05 μg/ml, IBMX 100 μM, NH4Cl 100 μM, niacinamide 10 μM, vs basal; for Melanin content, FM55 (pg/cell): same doses as E3, basal 9.92
Description: Cells were then washed 3-times with sterile PBS and supplemented with 350 μl of either fresh serum-free RPMI medium (melanoma cells) or starved serum-free and BPE-free melanocyte medium (EM) and incubated at 37° C. and 5% CO2 for 24 h. Cells were then washed with sterile PBS 3-times and incubated with IBMX 1×10^-4 M at 37° C. and 5% CO2 for 12, 24, and 72 h. Cells were then gently washed 3-times with sterile PBS and fixed in ice-cold methanol for 10 minutes at -20° C. Slides were stored at -20° C. until immunocytochemistry was performed. […] The melanin standards were pipetted into a 96 well plate to produce a calibration curve for the assessment of melanin content in the test samples. 400 μl of 1 M NaOH was added to each cell pellet and dissolved on a heat block (100° C.) for 15 minutes. The pellets were vortexed vigorously and the solubilized pellet was pipetted into the same 96-well plate. The optical densities of the sample were read at […] on a DYNEX REVELATION 4.02 program. Melanin content of each test sample was read from the calibration curve. […] In addition IBMX and NH4Cl (positive melanocytic modulators) and niacinamide (negative modulator) were used as controls. […] Controls: Melanocytic modulators: IBMX (100 μM), NH4Cl (100 μM), and niacinamide (10 μM). (A) Melanin content was determined spectrophotometrically (475 nm) after sodium hydroxide solubilisation. […] (B). Results were expressed as the change in melanin content (pg/cell) compared to unstimulated control levels. Means are ±SEM of 3 independent experiments with *P<0.05, **P<0.01, ***P<0.001.

[3] = test system: tyrosinase; assay: DOPA oxidase detection for tyrosinase activity in FM55 melanoma; assay type: cell-based, human; details: 72 h; for Changes in tyrosinase activity, FM55 % change: same doses as E5, vs basal
Description: The cells were prepared for SDS-PAGE and transblotted onto PVDF membranes. 70 μg of un-reduced protein extract without boiling was pipetted into the appropriate wells of 8% SDS-PAGE gels. […] The L-DOPA reaction was stopped by washing the membrane in distilled water and the membrane was scanned. […] In addition IBMX and NH4Cl (positive melanocytic modulators) and niacinamide (negative modulator) were used as controls. […] Controls: Melanocytic modulators: IBMX (100 μM), NH4Cl (100 μM), and niacinamide (10 μM.). (A) Protein extracts were electroblotted and membranes stained with L-DOPA for the estimation of tyrosinase activity. (B) Densitometric scanning of band intensities and values were expressed as the fold increase compared to unstimulated control levels. Means are ±SEM of 3 independent experiments with *P<0.05, **P<0.01, ***P<0.001.

[4] = test system: tyrosinase; assay: Tyrosinase activity in normal human melanocyte and keratinocyte co-culture (EM:KC); assay type: cell-based; details: 72 h; for % Change in EM Tyrosinase Activity of stimulated EM vs. stimulated EM-EK) level (i.e. 12.16): co-culture versus monoculture under the same stimulus; for % Change in EM Tyrosinase Activity vs. Basal EM level (i.e. 0), EM-EK: matched EM-EK co-culture (F52), L-18 0.001%, L-23 0.05 μg/ml, IBMX 100 μM, niacinamide 10 μM, basal co-culture +12.16
Description: The cells were prepared for SDS-PAGE and transblotted onto PVDF membranes. 70 μg of un-reduced protein extract without boiling was pipetted into the appropriate wells of 8% SDS-PAGE gels. […] The L-DOPA reaction was stopped by washing the membrane in distilled water and the membrane was scanned. […] Normal human epidermal melanocyte culture (Female-52; p5) and matched co-culture […] MC-KC were treated for 72 h with L-18 (0.001%), L-23 (0.05 μg/ml). Controls: Melanocytic modulators: IBMX (100 μM), and niacinamide (10 μM). Negative control lane: Keratinocytes only (A) Protein extracts were electroblotted and membranes stained with L-DOPA for the estimation of tyrosinase activity. (B) Densitometric scanning of band intensities and values were expressed as the fold increase compared to unstimulated control levels. Means are ±SEM of 3 independent experiments with *P<0.05, **P<0.01, ***P<0.001.

| SMILES | Changes in melanin levels, F52 EM % change [1] | Melanin content, F52 EM (pg/cell) [1] | Changes in melanin levels, FM55 % change [2] | Melanin content, FM55 (pg/cell) [2] | effect on melanin content compared with basal levels ([2]; FM55 melanoma cells, doses as E3) | Changes in tyrosinase activity, FM55 % change [3] | effect on tyrosinase (dopa oxidase) activity compared with basal levels ([3]; FM55 melanoma cells, doses as E5) | % Change in EM Tyrosinase Activity of stimulated EM vs. stimulated EM-EK) level (i.e. 12.16) [4] | % Change in EM Tyrosinase Activity vs. Basal EM level (i.e. 0), EM-EK [4] |
| --- | --- | --- | --- | --- | --- | --- | --- | --- | --- |
| CC(C)Cn1c(=O)n(C)c(=O)c2[nH]cnc21 [IBMX] | +74.57% | (62.2) pg/cell | +250.8% | (34.8) pg/cell | visible increases in melanogenesis | +141.72% | dramatic increase in dopa oxidase activity of tyrosinase | +23.57% | +93.41% |
| NC(=O)c1cccnc1 [niacinamide] | −4.01% | (34.2) pg/cell | −5.94% | (9.33) pg/cell | – | −3.31% | – | −18.84% | −20.50% |
